Test results from ChEMBL document CHEMBL1833792, “Synthesis of glycoconjugate carbonic anhydrase inhibitors by ruthenium-catalysed azide-alkyne 1,3-dipolar cycloaddition” (Bioorg Med Chem Lett, 2011).

How the values were obtained:
[1] = Selectivity ratio of Ki for carbonic anhydrase 2 to Ki for carbonic anhydrase 9
[2] = molecular target: Carbonic anhydrase 1 (Homo sapiens) (UniProt P00915)
Description: Inhibition of recombinant carbonic anhydrase 1 by stopped flow CO2 hydration assay

[3] = Selectivity ratio of Ki for carbonic anhydrase 1 to Ki for carbonic anhydrase 9
[4] = molecular target: Carbonic anhydrase 2 (Homo sapiens) (UniProt P00918)
Description: Inhibition of recombinant carbonic anhydrase 2 by stopped flow CO2 hydration assay

[5] = molecular target: Carbonic anhydrase 9 (Homo sapiens) (UniProt Q16790)
Description: Inhibition of recombinant carbonic anhydrase 9 by stopped flow CO2 hydration assay

[6] = Selectivity ratio of Ki for carbonic anhydrase 1 to Ki for carbonic anhydrase 2

Sequence of Carbonic anhydrase 1 (Homo sapiens) (P00915 2-261 limits assumed): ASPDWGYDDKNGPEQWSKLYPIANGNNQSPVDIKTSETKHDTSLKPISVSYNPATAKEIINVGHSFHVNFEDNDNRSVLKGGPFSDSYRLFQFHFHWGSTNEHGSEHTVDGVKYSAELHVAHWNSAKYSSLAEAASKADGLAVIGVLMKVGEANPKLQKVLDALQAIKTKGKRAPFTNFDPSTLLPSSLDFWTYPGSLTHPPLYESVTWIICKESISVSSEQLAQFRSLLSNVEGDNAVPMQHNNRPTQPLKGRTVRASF

Row | SMILES | Ratio Ki [1] | Kis [2] | Ratio Ki [3] | Kis [4] | Kis [5] | Ratio Ki [6]
1 | NS(=O)(=O)c1ccc(-c2cnnn2[C@@H]2O[C@H](CO)[C@@H](O[C@H]3O[C@H](CO)[C@@H](O)[C@H](O)[C@H]3O)[C@H](O)[C@H]2O)cc1 | 0.53 | 4.9 nM | 0.56 | 4.6 nM | 8.7 nM | 
2 | NS(=O)(=O)c1ccc(-c2cnnn2[C@@H]2O[C@H](CO)[C@H](O)[C@H](O)[C@H]2O)cc1 | 1.7 | 79 nM | 9.4 | 13.9 nM | 8.4 nM | 
3 | CC(=O)O[C@H]1[C@H](OC(C)=O)[C@H](OC(C)=O)CO[C@H]1n1nncc1-c1ccc(S(N)(=O)=O)cc1 | 0.04 | 4390 nM | 64 | 2.9 nM | 68.3 nM | 1510
4 | CC(=O)OC[C@H]1O[C@@H](n2nncc2-c2ccc(S(N)(=O)=O)cc2)[C@H](OC(C)=O)[C@@H](OC(C)=O)[C@H]1OC(C)=O | 0.33 | 71 nM | 9.7 | 2.4 nM | 7.3 nM | 
5 | CC(=O)OC[C@H]1O[C@@H](n2nncc2-c2ccc(S(N)(=O)=O)cc2)[C@H](OC(C)=O)[C@@H](OC(C)=O)[C@@H]1O[C@H]1O[C@H](COC(C)=O)[C@@H](OC(C)=O)[C@H](OC(C)=O)[C@H]1OC(C)=O | 0.85 | 6.7 nM | 0.91 | 6.3 nM | 7.4 nM | 
6 | NS(=O)(=O)c1ccc(-c2cnnn2[C@@H]2O[C@H](CO)[C@@H](O)[C@H](O)[C@H]2O)cc1 | 1.1 | 74 nM | 11 | 7.5 nM | 7 nM | 
7 | COC(=O)[C@H]1O[C@@H](n2nncc2-c2ccc(S(N)(=O)=O)cc2)[C@H](OC(C)=O)[C@@H](OC(C)=O)[C@@H]1OC(C)=O | 0.4 | 3.5 nM | 0.45 | 3.1 nM | 7.7 nM | 
8 | CC(=O)OC[C@H]1O[C@@H](n2nncc2-c2ccc(S(N)(=O)=O)cc2)[C@H](OC(C)=O)[C@@H](OC(C)=O)[C@@H]1OC(C)=O | 5 | 1360 nM | 42.7 | 163 nM | 32.6 nM | 
9 | NS(=O)(=O)c1ccc(-c2cnnn2[C@@H]2OC[C@@H](O)[C@@H](O)[C@@H]2O)cc1 | 0.18 | 83 nM | 1.7 | 8.9 nM | 48.3 nM | 
